According to publication PMC11345766, “Computational Design of Pore-Forming Peptides with Potent Antimicrobial and Anticancer Activities” (Journal of Medicinal Chemistry, 2024):
pIC50: −log10 of the molar value. Converted amounts (≈) assume the structure as drawn. One block for each compound: values may come before it.

Experiments:
[1] = tested on: A498; assay: cells; type: cell-based; conditions: Homo sapiens, Kidney, DMEM + 10% FCS, 72 hours
Procedure: (§1) The CellTiter-Glo luminescent cell viability assay examining the impact of peptides on 22 different human cell lines was purchased from Reaction Biology Europe GmbH (Germany). Cells were cultured in different media (Table S1), seeded into a flat-bottom 96-well plate, and incubated at 37 °C. After overnight incubation, test compounds were added with 1% PBS/0.3% Tween 20 and the reference compound bortezomib was added with 0.1% DMSO. Negative controls were solvents alone, and positive control was 10 μM staurosporine. After 72 h of incubation at 37 °C, 5 or 10% CO2 (dependent on the medium), and 1 h equilibration at room temperature, well plates were treated with CellTiter-Glo reagent (Promega) for an hour and luminescence was measured using a luminometer.
(§2) Table S1. In vitro activity against 22 different human cancer cell lines.
(§3) Sr. Cancer Activity (in M)
(§4) no. Cell line type Culture medium
(§5) The effect of investigated compounds on the proliferation of 22 different human cell lines is
(§6) Twenty of these 22 cell lines represent specific cancer types and 2 were non-cancerous. Peptide
(§7) Anticancer drug bortezomib was used as the […]

[2] = tested on: A549; assay: cells; type: cell-based; conditions: Homo sapiens, Lung, DMEM + 10% FCS, 72 hours
Procedure: as §1, §2, §3, §4, §5, §6, §7

[3] = tested on: Caki-1; assay: cells; type: cell-based; conditions: Homo sapiens, Kidney, DMEM + 10% FCS, 72 hours
Procedure: as §1, §2, §3, §4, §5, §6, §7

[4] = tested on: DU-145; assay: cells; type: cell-based; conditions: Homo sapiens, Prostate, DMEM + 10% FCS, 72 hours
Procedure: as §1, §2, §3, §4, §5, §6, §7

[5] = tested on: H460; assay: cells; type: cell-based; conditions: Homo sapiens, NCI-H460; Lung; DMEM + 10% FCS; 72 hours
Procedure: as §1, §2, §3, §4, §5, §6, §7

[6] = tested on: HCT116; assay: cells; type: cell-based; conditions: Homo sapiens, HCT-116; Colorectal; DMEM + 10% FCS; 72 hours
Procedure: as §1, §2, §3, §4, §5, §6, §7

[7] = tested on: HL-60; assay: cells; type: cell-based; conditions: Homo sapiens, Leukemia, RPMI-1640 + 10% FCS, 72 hours
Procedure: as §1, §2, §3, §4, §5, §6, §7

[8] = tested on: K562; assay: cells; type: cell-based; conditions: Homo sapiens, Leukemia, RPMI-1640 + 10% FCS, 72 hours
Procedure: as §1, §2, §3, §4, §5, §6, §7

[9] = tested on: MCF-7; assay: cells; type: cell-based; conditions: Homo sapiens, MCF7; Breast; DMEM + 10% FCS; 72 hours
Procedure: as §1, §2, §3, §4, §5, §6, §7

[10] = tested on: MDA MB 231; assay: cells; type: cell-based; conditions: Homo sapiens, Breast, DMEM + 10% FCS, 72 hours
Procedure: as §1, §2, §3, §4, §5, §6, §7

[11] = tested on: MOLT-4; assay: cells; type: cell-based; conditions: Homo sapiens, Leukemia, DMEM + 10% FCS, 72 hours
Procedure: as §1, §2, §3, §4, §5, §6, §7

[12] = tested on: MSC_UC; assay: cells; type: cell-based; conditions: Homo sapiens; Non-cancerous; Promocell MSC-Medium C-28010 + Sup. C39810; 72 hours
Procedure: as §1, §2, §3, §4, §5, §6, §7

[13] = tested on: NHDF; assay: cells; type: cell-based; conditions: Homo sapiens; Non-cancerous; Promocell NHDF-Medium C-23010 + Sup. C39315; 72 hours
Procedure: as §1, §2, §3, §4, §5, §6, §7

[14] = tested on: PC3; assay: cells; type: cell-based; conditions: Homo sapiens, PC-3; Prostate; DMEM + 10% FCS; 72 hours
Procedure: as §1, §2, §3, §4, §5, §6, §7

[15] = tested on: SK-OV3; assay: cells; type: cell-based; conditions: Homo sapiens, SK-OV-3; Ovarian; DMEM + 10% FCS; 72 hours
Procedure: as §1, §2, §3, §4, §5, §6, §7

[16] = tested on: SW620; assay: cells; type: cell-based; conditions: Homo sapiens, SW-620; Colorectal; DMEM + 10% FCS; 72 hours
Procedure: as §1, §2, §3, §4, §5, §6, §7

[17] = tested on: T-47D; assay: cells; type: cell-based; conditions: Homo sapiens, T47D; Breast; RPMI-1640 +10% FCS + 0,2U/mL Insulin; 72 hours
Procedure: as §1, §2, §3, §4, §5, §6, §7

[18] = tested on: U251MG; assay: cells; type: cell-based; conditions: Homo sapiens, U-251; Brain; DMEM + 10% FCS; 72 hours
Procedure: as §1, §2, §3, §4, §5, §6, §7

[19] = tested on: HCT-15; assay: cells; type: cell-based, human; conditions: Homo sapiens, HCT-15; Colorectal; RPMI-1640 +10% FCS; 72 hours; read-out: Activity (in M), IC50
Procedure: as §1, §2, §3, §4, §5, §6, §7

[20] = tested on: MDA MB 435; assay: cells; type: cell-based, human; conditions: Homo sapiens, MDA-MB-435; Melanoma; RPMI-1640 +10% FCS; 72 hours; read-out: Activity (in M), IC50
Procedure: as §1, §2, §3, §4, §5, §6, §7

[21] = tested on: OVCAR-3; assay: cells; type: cell-based, human; conditions: Homo sapiens, OVCAR-3; Ovarian; RPMI-1640 +10% FCS; 72 hours; read-out: Activity (in M), IC50
Procedure: as §1, §2, §3, §4, §5, §6, §7

[22] = tested on: RPMI 8226; assay: cells; type: cell-based, human; conditions: Homo sapiens, RPMI-8226; Myeloma; RPMI-1640 +10% FCS; 72 hours; read-out: Activity (in M), IC50
Procedure: as §1, §2, §3, §4, §5, §6, §7

[23] = tested on: E. coli (TOP10); assay: Broth microdilution antimicrobial susceptibility assay; type: cell-based, Escherichia coli; conditions: Escherichia coli; 24 h, MHB
Source text: (§8) To test antimicrobial activity, all peptides were initially screened, in a broth microdilution assay, against Gram-negative Escherichia coli (TOP10) and Gram-positive Staphylococcus carnosus (CCM 4838T) Biosafety Level 1 (BSL-1) bacteria (Table 2). […] Four other mutants (LP3, LP26, LP36, and LP39) had higher activity than LP1 against E. coli, and two mutants (LP23 and LP32) had higher activity than LP1 against S. carnosus. Six mutants (LP29, LP30, LP31, LP33, LP40, and LP43) were not active against one or both bacteria, even at the highest concentration tested (50 μM).
(§9) Antimicrobial activity against E. coli TOP10 and S. carnosus CCM 4838T was tested using the broth microdilution assay. Bacteria were cultured in MHA Petri dish for 24 h, subcultured in an MHB test tube for 6 h at 37 °C, and diluted to 10^6 CFU/mL (OD600). […] Dilution series was prepared for concentrations 50 to 0.1 μM in a flat-bottom 96-well plate, inoculated with bacteria, and incubated for 24 h at 37 °C. Growth control wells were free from test compounds, and sterility control wells were free from bacteria. Bacterial MIC was determined as the lowest concentration of test compounds that inhibited visible growth of bacteria (i.e., no visible turbidity).

[24] = tested on: S. carnosus (CCM 4838T); assay: microbe, parasite or virus in culture; type: cell-based, Staphylococcus carnosus; conditions: Staphylococcus carnosus; 24 h, MHB; read-out: Antimicrobial activity (MIC) S. carnosus (CCM 4838T)
Source text: as §8, §9

[25] = tested on: ESKAPEE pathogens; assay: MIC against five commercially available ESKAPEE strains (Figure 3a); type: cell-based
Procedure: First, LP1 and five mutants (LP3, LP8, LP18, LP22, and LP28) were tested against five commercially available ESKAPEE strains (Figure 3a). Promising activity was obtained against Gram-negative Acinetobacter baumannii (GSAB 164), which is resistant to colistin and meropenem, followed by a quality control strain of E. coli (ATCC 25922). Micromolar activity, i.e., MIC of 1 μM, was obtained with both LP1 and LP18.
(Protocol a) Antimicrobial activity test against ESKAPEE strains S. aureus NRS 1, K. pneumoniae ATCC 700603, A. baumannii GSAB 164, P. aeruginosa NCTC 13437, and E. coli ATCC 25922 was purchased from Evotec (UK).

[26] = tested on: ESKAPEE pathogens; assay: MIC against six reference strains of ESKAPEE pathogens (Figure 3b); type: cell-based
Source text: The effect of net charge was further investigated against six reference strains of ESKAPEE pathogens (Figure 3b).

[27] = tested on: ESKAPEE pathogens; assay: MIC against nine ampicillin-resistant ESKAPEE strains (Figure 3d); type: cell-based; conditions: 72 h

pIC50 [1]: 8.04 | pIC50 [2]: 7.60 | pIC50 [3]: 7.92 | pIC50 [4]: 7.80 | pIC50 [5]: 7.59 | pIC50 [6]: 8.16 | pIC50 [7]: 8.39 | pIC50 [8]: 8.04 | pIC50 [9]: 7.68 | pIC50 [10]: 7.92 | pIC50 [11]: 8.40 | pIC50 [14]: 7.80 | pIC50 [15]: 7.72 | pIC50 [16]: 8.00 | pIC50 [17]: 8.07 | pIC50 [18]: 7.72 | pIC50 [19]: 8.01 | pIC50 [20]: 8.37 | pIC50 [21]: 8.40 | pIC50 [22]: 8.49
SMILES: CC(C)C[C@H](NC(=O)[C@H](Cc1ccccc1)NC(=O)c1cnccn1)B(O)O [Bortezomib]
pIC50 [12]: 8.33 | pIC50 [13]: 7.85

SMILES: CC1(C)S[C@@H]2[C@H](NC(=O)[C@H](N)c3ccccc3)C(=O)N2[C@H]1C(=O)O [Ampicillin]
MIC [23]: 12.5 µM (≈ 4.37 µg/mL) | MIC [24]: 0.1 µM (≈ 0.0349 µg/mL) | MIC [25]: > 180 µM | MIC [26]: > 92 µM | MIC [27]: > 360 µM
